Measured values: PubChem BioAssay AID2060908 (Molecular Pharmacology Branch, DTP, NCI, 2025)
Values joined by “and” are separate entries in the source; they are usually repeats but may differ in a detail not shown here. Equal values may be shown once. One block for each compound: values may come before it.

Tested on: 186277-243-T-J2-PDC complex spheroids, viability
Test: Anticancer human tumor 186277-243-T-J2-PDC patient-derived colon adenocarcinoma cell line growth inhibition [RAS]
Details: for viability, T/C: stronger effect = lower value
Procedure, shortened: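 Agents were tested in combination matrices in half-log decrements from a top concentration at or near clinical Cmax (10 microM if undetermined). Targets were multi-cell spheroids of tumour lines plus HUVEC and MSC stromal cells.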

[1] = curve of first compound, second compound 0.0316 µM
[2] = curve of first compound, second compound 0.1 µM
[3] = curve of first compound, second compound 0.316 µM
[4] = curve of first compound, second compound 1 µM
[5] = second compound 0.0316 µM, first compound 0.0316 µM
[6] = second compound 0.0316 µM, first compound 0.1 µM
[7] = second compound 0.0316 µM, first compound 0.316 µM
[8] = second compound 0.0316 µM, first compound 1 µM
[9] = second compound 0.0316 µM, first compound 3.16 µM
[10] = second compound 0.0316 µM, first compound 10 µM
[11] = second compound 0.1 µM, first compound 0.0316 µM
[12] = second compound 0.1 µM, first compound 0.1 µM
[13] = second compound 0.1 µM, first compound 0.316 µM
[14] = second compound 0.1 µM, first compound 1 µM
[15] = second compound 0.1 µM, first compound 3.16 µM
[16] = second compound 0.1 µM, first compound 10 µM
[17] = second compound 0.316 µM, first compound 0.0316 µM
[18] = second compound 0.316 µM, first compound 0.1 µM
[19] = second compound 0.316 µM, first compound 0.316 µM
[20] = second compound 0.316 µM, first compound 1 µM
[21] = second compound 0.316 µM, first compound 3.16 µM
[22] = second compound 0.316 µM, first compound 10 µM
[23] = second compound 1 µM, first compound 0.0316 µM
[24] = second compound 1 µM, first compound 0.1 µM
[25] = second compound 1 µM, first compound 0.316 µM
[26] = second compound 1 µM, first compound 1 µM
[27] = second compound 1 µM, first compound 3.16 µM
[28] = second compound 1 µM, first compound 10 µM
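Further: spheroids exposed to compounds for 7 days before viability read.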

IC50 [1]: < 31.6 nM | IC50 [2]: < 31.6 nM | IC50 [3]: < 31.6 nM | IC50 [4]: < 31.6 nM | IC50 (curve of first compound, second compound 3.16 µM): < 31.6 nM | IC50 (curve of first compound, second compound 10 µM): < 31.6 nM
Structure (SMILES): NC1c2ccccc2OC12CCN(c1cnc3c(N4CCCc5ncccc54)n[nH]c3n1)CC2 (stereo unspecified) + C#Cc1c(F)ccc2cc(O)cc(-c3ncc4c(N5CC6CCC(C5)N6)nc(OCC56CCCN5CC(F)C6)nc4c3F)c12
viability, T/C [5]: 39.1% | viability, T/C [6]: 14.9% | viability, T/C [7]: 8.55% | viability, T/C [8]: 7.47% | viability, T/C [9]: 5.16% | viability, T/C [10]: 3.58% | viability, T/C [11]: 14.2% | viability, T/C [12]: 9.2% | viability, T/C [13]: 7.59% | viability, T/C [14]: 7.67% | viability, T/C [15]: 5.13% | viability, T/C [16]: 3.21% | viability, T/C [17]: 10.8% | viability, T/C [18]: 8.96% | viability, T/C [19]: 7.32% | viability, T/C [20]: 7.04% | viability, T/C [21]: 5.5% | viability, T/C [22]: 3.89% | viability, T/C [23]: 9.12% | viability, T/C [24]: 7.57% | viability, T/C [25]: 7.39% | viability, T/C [26]: 5.61% | viability, T/C [27]: 4.48% | viability, T/C [28]: 3.29% | viability, T/C (second compound 3.16 µM, first compound 0.0316 µM): 8.98% | viability, T/C (second compound 3.16 µM, first compound 0.1 µM): 6.65% | viability, T/C (second compound 3.16 µM, first compound 0.316 µM): 5.07% | viability, T/C (second compound 3.16 µM, first compound 1 µM): 4.41% | viability, T/C (second compound 3.16 µM, first compound 3.16 µM): 5.32% | viability, T/C (second compound 3.16 µM, first compound 10 µM): 2.82% | viability, T/C (second compound 10 µM, first compound 0.0316 µM): 6.21% | viability, T/C (second compound 10 µM, first compound 0.1 µM): 5.08% | viability, T/C (second compound 10 µM, first compound 0.316 µM): 3.47% | viability, T/C (second compound 10 µM, first compound 1 µM): 2.88% | viability, T/C (second compound 10 µM, first compound 3.16 µM): 1.6% | viability, T/C (second compound 10 µM, first compound 10 µM): 0.47%

IC50 (curve of first compound, second compound 0.000949 µM): 54.2 nM | IC50 (curve of first compound, second compound 0.003 µM): < 31.6 nM | IC50 (curve of first compound, second compound 0.00949 µM): < 31.6 nM | IC50 (curve of first compound, second compound 0.03 µM): < 31.6 nM | IC50 (curve of first compound, second compound 0.0949 µM): < 31.6 nM | IC50 (curve of first compound, second compound 0.3 µM): < 31.6 nM
Structure (SMILES): NC1c2ccccc2OC12CCN(c1cnc3c(N4CCCc5ncccc54)n[nH]c3n1)CC2 (stereo unspecified) + CCn1c(-c2cc(N3CCN(C)CC3)cnc2C(C)OC)c2c3cc(ccc31)-c1csc(n1)CC(NC(=O)C1CC1C)C(=O)N1CCCC(N1)C(=O)OCC(C)(C)C2
viability, T/C (second compound 0.000949 µM, first compound 0.0316 µM): 70.1% | viability, T/C (second compound 0.000949 µM, first compound 0.1 µM): 26.9% | viability, T/C (second compound 0.000949 µM, first compound 0.316 µM): 6.05% | viability, T/C (second compound 0.000949 µM, first compound 1 µM): 3.49% | viability, T/C (second compound 0.000949 µM, first compound 3.16 µM): 2.69% | viability, T/C (second compound 0.000949 µM, first compound 10 µM): 2.5% | viability, T/C (second compound 0.003 µM, first compound 0.0316 µM): 25.1% | viability, T/C (second compound 0.003 µM, first compound 0.1 µM): 6.27% | viability, T/C (second compound 0.003 µM, first compound 0.316 µM): 3.3% | viability, T/C (second compound 0.003 µM, first compound 1 µM): 2.57% | viability, T/C (second compound 0.003 µM, first compound 3.16 µM): 2.3% | viability, T/C (second compound 0.003 µM, first compound 10 µM): 1.8% | viability, T/C (second compound 0.00949 µM, first compound 0.0316 µM): 7.02% | viability, T/C (second compound 0.00949 µM, first compound 0.1 µM): 3.42% | viability, T/C (second compound 0.00949 µM, first compound 0.316 µM): 2.63% | viability, T/C (second compound 0.00949 µM, first compound 1 µM): 1.94% | viability, T/C (second compound 0.00949 µM, first compound 3.16 µM): 1.79% | viability, T/C (second compound 0.00949 µM, first compound 10 µM): 1.61% | viability, T/C (second compound 0.03 µM, first compound 0.0316 µM): 3.98% | viability, T/C (second compound 0.03 µM, first compound 0.1 µM): 3.86% | viability, T/C (second compound 0.03 µM, first compound 0.316 µM): 2.26% | viability, T/C (second compound 0.03 µM, first compound 1 µM): 1.79% | viability, T/C (second compound 0.03 µM, first compound 3.16 µM): 3.5% | viability, T/C (second compound 0.03 µM, first compound 10 µM): 1.52% | viability, T/C (second compound 0.0949 µM, first compound 0.0316 µM): 3.58% | viability, T/C (second compound 0.0949 µM, first compound 0.1 µM): 2.71% | viability, T/C (second compound 0.0949 µM, first compound 0.316 µM): 2.03% | viability, T/C (second compound 0.0949 µM, first compound 1 µM): 1.94% | viability, T/C (second compound 0.0949 µM, first compound 3.16 µM): 1.81% | viability, T/C (second compound 0.0949 µM, first compound 10 µM): 1.53% | viability, T/C (second compound 0.3 µM, first compound 0.0316 µM): 3.17% | viability, T/C (second compound 0.3 µM, first compound 0.1 µM): 2.52% | viability, T/C (second compound 0.3 µM, first compound 0.316 µM): 1.83% | viability, T/C (second compound 0.3 µM, first compound 1 µM): 1.56% | viability, T/C (second compound 0.3 µM, first compound 3.16 µM): 1.77% | viability, T/C (second compound 0.3 µM, first compound 10 µM): 1.56%

IC50 (curve of compound): > 10000 nM
Structure (SMILES): Cc1nc(N2CCC3(CC2)COC(C)C3N)c(CO)nc1Sc1ccnc(N)c1Cl (stereo unspecified)
viability, T/C (compound 0.0316 µM): 101% [middle of 4 runs] | viability, T/C (compound 0.316 µM): 107% [middle of 4 runs] | viability, T/C (compound 1 µM): 110% (2×) and 105% and 119% | viability, T/C (compound 3.16 µM): 119% (2×) and 105% and 91.9%

IC50 (curve of first compound, second compound 0.00316 µM): > 10000 nM | IC50 (curve of first compound, second compound 0.01 µM): > 10000 nM | IC50 [1]: 9070 nM | IC50 [2]: 9170 nM | IC50 [3]: > 10000 nM | IC50 [4]: > 10000 nM
Structure (SMILES): NC1c2ccccc2OC12CCN(c1cnc3c(N4CCCc5ncccc54)n[nH]c3n1)CC2 (stereo unspecified) + C=CC(=O)N1CCN(c2nc(OCC3CCCN3C)nc3c(F)c(-c4nc(N)cc(C)c4C(F)(F)F)c(Cl)cc23)C(C)C1
viability, T/C (second compound 0.00316 µM, first compound 0.0316 µM): 83.8% | viability, T/C (second compound 0.00316 µM, first compound 0.1 µM): 94.6% | viability, T/C (second compound 0.00316 µM, first compound 0.316 µM): 101% | viability, T/C (second compound 0.00316 µM, first compound 1 µM): 75% | viability, T/C (second compound 0.00316 µM, first compound 3.16 µM): 64.4% | viability, T/C (second compound 0.00316 µM, first compound 10 µM): 50.3% | viability, T/C (second compound 0.01 µM, first compound 0.0316 µM): 100% | viability, T/C (second compound 0.01 µM, first compound 0.1 µM): 109% | viability, T/C (second compound 0.01 µM, first compound 0.316 µM): 100% | viability, T/C (second compound 0.01 µM, first compound 1 µM): 67.9% | viability, T/C (second compound 0.01 µM, first compound 3.16 µM): 72.6% | viability, T/C (second compound 0.01 µM, first compound 10 µM): 57.6% | viability, T/C [5]: 95.5% | viability, T/C [6]: 108% | viability, T/C [7]: 89.6% | viability, T/C [8]: 79.4% | viability, T/C [9]: 82.1% | viability, T/C [10]: 45.8% | viability, T/C [11]: 85% | viability, T/C [12]: 96.7% | viability, T/C [13]: 77.4% | viability, T/C [14]: 80.7% | viability, T/C [15]: 84% | viability, T/C [16]: 47.3% | viability, T/C [17]: 108% | viability, T/C [18]: 110% | viability, T/C [19]: 88.7% | viability, T/C [20]: 85.3% | viability, T/C [21]: 84.3% | viability, T/C [22]: 52.4% | viability, T/C [23]: 112% | viability, T/C [24]: 92.5% | viability, T/C [25]: 79.6% | viability, T/C [26]: 88.7% | viability, T/C [27]: 78.5% | viability, T/C [28]: 45%
